Assay results as given in PubChem BioAssay AID602479 (National Center for Advancing Translational Sciences (NCATS), 2012).

Tested on: mouse liver microsomes, metabolic half-life
Experiment: qHTS Assay for Inhibitors of Bacillus subtilis Sfp phosphopantetheinyl transferase (PPTase): Mouse Liver Microsome Stability (Half Time)
From the text: PPTases are responsible for the activation of a variety of pathogen-associated virulence factors. Among these compounds are toxins such as mycolactone from Mycobacterium ulcerans, siderophores such as vibriobactin from Vibrio cholerae or mycobactin from Mycobacterium tuberculosis, as well as the mycolic acids which form the waxy cell wall of Mycobacteria. The biosyntheses of these natural products are considered attractive targets for drug design. After a large qHTS and several follow-up assays, a small molecule was identified and this in vitro ADME assay serves to better characterize its properties.
This bioassay provides profiling data on mouse liver microsome stability.
NIH Chemical Genomics Center [NCGC]
NIH Molecular Libraries Probe Centers Network [MLPCN]
Assay Submitter (PI): Michale Burkart, University of California, San Diego
1uM of compound in incubated in mouse liver microsome; the reference compound is ketanserin. Compounds are incubated at 37 degrees C for different time periods: 0, 5, 15, 30, 45, and 60 minutes. Samples are analyzed with LC-MS/MS.

- microsomal half-life: 49.5 min
Structure (SMILES): COc1ccnc(NC(=S)N2CCN(c3ncc(C(F)(F)F)cc3Cl)CC2)c1
